Data as given in patent US20220105157A1, “Compositions and Methods for Promoting Angiogenesis in the Eye” (The Regents of the University of California, priority 2019, published 2022).

What was measured:
mouse choroidal explants = experiment: Mouse choroidal explant assay (ex vivo sprouting); type: cell-based; settings: LIF 10 ng/ml, compared with control
Method: In a 48-well plate, 60 μL of growth factor-reduced basement membrane extract (GFR-BME) (Corning, CAT #354230) was added to each well and allowed to solidify at 37° C. for 20 minutes. A dice of the peripheral choroid-scleral complex (approximately 1 mm×1 mm), dissected from male C57BL/6J mice (age P20), was added to the center of each well as previously described (23). A top layer of 60 μL GFR-BME was added to each well, followed by incubation at 37° C. for 30 minutes. Upon adding 500 μL of endothelial cell growth basal medium EBM-2 (Lonza, CAT #CC3156) supplemented with 2% FBS and antibiotics, endogenous VEGF activity of choroid explants was blunted by 5 μg/ml of anti-VEGF Mab B20-4.1.1. After 90 minutes of incubation with the antibody, 10 ng/ml of LIF or PBS control was added in the test wells. Tissues were incubated in standard cell culture conditions with 5% CO2 and fresh media were changed every 48 hours. Phase contrast Z-stack images of each explants were taken on day 5 using a Keyence microscope. Vessel sprouting areas were quantified using ImageJ software. The experiment was repeated three times and data were obtained by analyzing 5 replicates per each condition each time.

[1] = test system: retinal vasculature of mouse eyes; experiment: Intravitreal injection of recombinant proteins in mouse eyes, retinal vessel density; type: in vivo; settings: for retinal microvessel density (CD31): 6-8 week old mice, intravitreal
Method: Male C57BL/6J mice (6-8 week and P5) were anesthetized with ketamine/Xylazine cocktail. The indicated amounts of recombinant LIF (Sigma, CAT #SRP9001) in 1 μl of PBS and PBS vehicle control were injected intravitreally with a 33-gauge Hamilton syringe. Seven (for adult mice) or 3 (for neonatal mice) days after injection, animals were euthanized, eyes were then enucleated and fixed in 4% paraformaldehyde (PFA) for 15 min. Choroid-sclera complexes and retinas were separated and anti-CD31 immunofluorescence (IF) or lectin labeling was performed to evidence the vasculature by whole mount staining of both retina and choroidal tissues or flat-mounts of retina. For CD31 IF, rat anti-mouse antibody (BD Biosciences, CAT #550274) was diluted 1:100 and incubated overnight at 4° C. After 4-hour incubation with the Alexa Fluor-488-conjugated anti-rat antibody (Life Technologies, CAT #A11006), whole mounts were imaged via the 488 nm channel using Keyence Microscope BZ-X710 (Keyence Corporation, Osaka, Japan) or A1R Confocal STORM super-resolution system (Nikon). For lectin staining, Dylight-488-labeled lectin (Vector Laboratories, CAT #DL-1174) was diluted at 1:200 and images were obtained using A1R Confocal STORM super-resolution system (Nikon). For Quantification of vascular density in choroids and retina was carried out by Image J. Student's t test was used for statistical analysis. Each experiment was repeated three times with similar results each time, and each treatment group consists of 4 or 5 individual samples in every experiment. All animal experimental procedures were approved by the Institutional Animal Care and Use Committee (IACUC) of the University of California San Diego and conducted in accordance with the guidelines of the Animal Care Program (ACP).
Optical coherence tomography angiography (OCTA) imaging of the retina of adult mice was performed 7 days after LIF injection, using a 1300 nm optical coherence tomography (OCT) system developed by Dr. R. K. Wang's group at University of Washington Seattle, in agreement with previously described methodology (66). Briefly, the swept laser operated in single longitude mode with a 90 nm bandwidth centered at 1300 nm and 200 kHz A-line rate was used to scan mouse retina and to generate images of vasculature in a field of view of 1.5×1.5 mm^2. 2500 B-frames were captured at 500 cross-sections with five repeated B-frames at each cross-section. To quantify the retinal vascular density, retinal and choroidal layers in 3D structure OCT scans were separated by the hyper-reflecting retinal pigment epithelium (RPE). Then the en face maximum intensity projection was generated. The vessel density was then determined by calculating the percentages of vessel-covered area in total area of view using the ImageJ software.

BAE cells = experiment: Annexin V staining for cell death; type: cell-based, bovine; settings: BAE cells treated with LIF (10 ng/ml) for 24 hours
Method: BAE cells were plated at a density of 2×10^4 cells/well with 1 ml of culture medium (DMEM-low glucose plus 10% BCS) in 12-well plates and then incubated at 37° C. overnight. After removal of culture medium, cells were incubated in 0.5 ml of DMEM-low glucose plus 1% BCS. LIF (10 ng/ml) and vehicle control (0.1% BSA in PBS) were added to the cells. Following LIF treatment for 24 hours, cells were examined for cell death marker Annexin V using Annexin V-Cy5 Apoptosis Staining Detection Kit (Abcam, CAT #ab14150) according to manufacturer's instructions. Briefly, cell culture medium was removed and 0.5 ml of Annexin V binding solution was laid over onto the cells. Cells were incubated at room temperature for 5 min following addition of 5 μl of Annexin V-Cy5. Then, the staining solution was discarded and replaced with 0.5 ml of Annexin V binding solution. Imaging of Annexin V staining were performed using Keyence Microscope BZ-X710 (Keyence Corporation, Osaka, Japan). Four random fields were selected and the percentages of Annexin V-staining area in total cell-covered area as indicatives for cell death were determined using ImageJ software. The experiment was carried out in triplicate and repeated three time.

[2] = test system: bovine choroidal endothelial (BCE) cells; experiment: BCE endothelial cell proliferation assay (alamar blue); type: cell-based
Method: The bovine endothelial proliferation assays were performed essentially as previously described (63, 64). BCE (1×10^3 cells/well) or BRE (5×10^2 cells/well) cells were seeded in 96-well plates in the culture medium (DMEM-low glucose supplemented with 10% BCS, 2 mM glutamine and antibiotics) plus testing materials with a total volume of 200 μl per well. BAE cells were plated in 96-well plates at a density of 2×10^3 cells in the culture medium (DMEM-low glucose supplemented with 1% BCS and antibiotics) plus testing material with a total volume of 200 μl per well. HRME cells were seeded at a density of 1×10^3 cells/well in gelatin-coated 96-well plates in assay medium (DMEM-low glucose supplemented with 20% FBS and antibiotics) plus testing materials to make a total volume 200 μl per well. For assays involving antibodies or small-molecule inhibitors, inhibitors or vehicle controls were first added and then test materials were added one hour later. After 6 days (unless otherwise specified), cells were incubated with alamar blue for 4 h. Fluorescence was measured at 530 nm excitation wavelength and 590 nm emission wavelength. Each experiment was carried out in duplicate/triplicate and repeated at least three times.

## LIF: recombinant human leukemia inhibitory factor, a member of the IL-6 family of cytokines
Mouse choroidal explants
  microvascular outgrowth from the choroidal explant into the matrigel: significantly enhanced
[1]; 5-day postnatal (P5) mice, intravitreal LIF 50 ng, three days after the injection
  retinal vascular density in neonatal mice (lectin): significant increase in vascular density
[1]; 10 ng per eye, 7 days
  retinal microvessel density (CD31): significantly increased
[1]; 100 ng, 7 days
  retinal microvessel density (CD31): less effective
[1]; adult mice, intravitreal LIF 10 ng, 7 days
  vessel density in retina, CD31 immunofluorescence in cross sections of mouse eyes: increased vessel density
[1]; adult mice, intravitreal LIF 50 ng, 7 days
  retinal vessel density by OCTA: significant increases
BAE cells
  Annexin V positive cells (cell death marker): increased proportion of cells were Annexin V positive
[2]
  stimulation of BCE cell growth (mitogenic activity): stimulated growth of BCE cells
